Experimental data reported in patent publication US20220289751A1, “COMPOUND HAVING KDM5 INHIBITORY ACTIVITY AND PHARMACEUTICAL USE THEREOF” (ONO PHARMACEUTICAL CO., LTD., priority 2019, published 2022).
Read-outs that look alike come from different tables or passages of the source.

Columns and labels:
[1] = test system: Wild type MDCKII cells; experiment: Permeability in wild type MDCK cell lines (MDCK-WT); type: in vitro ADME; conditions: apical to basal, 10 μM test compound, 60 min, pH 7.4
Protocol: (§1) Wild type MDCKII cells were seeded onto an apical chamber 3 days prior to running the assay at a density of 2.3×10^5 cells per well. The integrity of cell monolayers was evaluated by examining the permeability of lucifer yellow assay using a Spectramax Gemini XS with excitation and emission at 426 nm and 538 nm respectively. Permeation of Lucifer Yellow should be ≤10×10^−6 cm/s for the experimental data to be accepted. The cell monolayers were preincubated in transport buffer (HBSS with CaCl2 and MgCl2)+25 mM HEPES, adjust to pH 7.4) at 37° C. or more than 20 min. Transport experiment was initiated by adding test compound solution (10 μM) to the apical chamber. Samples were obtained from basal chamber at 60 min, followed by addition of ice-cold acetonitrile containing internal standard. LC-MS/MS analysis was conducted as specified below. Standard calibration samples were prepared using the same matrix and analysed in the same manner. [table] […] Papp(cm/s)=(dCB/dt)×VB/(A×CA) dCB/dt is the slope of the cumulative concentration in basal side versus time VB is the volume of the basal compartment A is the area of the membrane surface area CA is the initial concentration in apical side

[2] = biological target: T1, KDM5A protein (Homo sapiens, UniProt P29375); experiment: Biochemical KDM5A inhibition assay (HTRF); conditions: read-out: IC50 value
T1 construct: purchased BPS Bioscience 50110
Protocol: Using 384-well white ProxiPlates (PerkinElmer), representative compounds were characterized for their inhibition of KDM5A using HTRF® technology (Cisbio Bioassays). Briefly, the test compounds, reference compounds, and DMSO control (typical compound concentration range 300 pM-10 μM, final assay concentration (FAC) of DMSO 0.5%) were added to 384-well plate by the Echo® acoustic dispensing platform (Labcyte). Three (3) μ1 of KDM5A protein (BPS Bioscience, Cat #50110)(10 or 20 nM FAC) in assay buffer (50 mM MES, 50 mM NaCl, 2 mM ascorbic acid, 0.01% v/v Tween 20, pH 6.5) was added to wells and plates were incubated for 10 minutes at room temperature. Then, 3 μl of biotin-labelled H3K4-me3 substrate (Anaspec Cat #AS-64357-1; 100 nM FAC), alpha-ketoglutaric acid ([…]) and Fe(II)SO4 (FAC 100 μM) in assay buffer was added and plates were incubated for 60 minutes at room temperature. The reaction was stopped with the addition of 6 μl of anti-H3-[…]-Eu(K) (Cisbio Bioassays Cat #61KA2KAE; 0.025 μg/ml FAC)+Streptavidin XL665 (Cisbio Bioassays Cat #610SAXLA; 0.5 μg/ml FAC) in HTRF detection buffer (Cisbio Bioassays Cat #62SDBRDD). The mixture was incubated for 90 minutes at room temperature before 340 nm excitation and measurement of dual emission at 620 nm and 665 nm. The raw data (a 665 nm and a 620 nm reading from each well) for individual assay plates were analyzed. The ratio of emissions was calculated using the following calculation: Ratio=(665 nm emission/620 nm emission)*10000. Using DMSO control (maximum response or 0% inhibition) and 1 μM reference control compound (minimum response or 100% inhibition), percentage inhibition values for each well were calculated using the median values of the minimum and maximum control wells and the following calculation: % Inhibition=(Well ratio-max control ratio)/(min control ratio-max control ratio)*100. Compound IC50 values were calculated from graphs of % inhibition plotted against compound concentration, using a four parameter curve fit.

[3] = Permeability in wild type MDCK cell lines (MDCK-WT); type: in vitro ADME; conditions: dog, MDCK, pH 7.4, apical to basal, 10 μM test compound, read-out: MDCK-WT (Papp)
Protocol: as §1

T1 sequence (P29375 whole entry): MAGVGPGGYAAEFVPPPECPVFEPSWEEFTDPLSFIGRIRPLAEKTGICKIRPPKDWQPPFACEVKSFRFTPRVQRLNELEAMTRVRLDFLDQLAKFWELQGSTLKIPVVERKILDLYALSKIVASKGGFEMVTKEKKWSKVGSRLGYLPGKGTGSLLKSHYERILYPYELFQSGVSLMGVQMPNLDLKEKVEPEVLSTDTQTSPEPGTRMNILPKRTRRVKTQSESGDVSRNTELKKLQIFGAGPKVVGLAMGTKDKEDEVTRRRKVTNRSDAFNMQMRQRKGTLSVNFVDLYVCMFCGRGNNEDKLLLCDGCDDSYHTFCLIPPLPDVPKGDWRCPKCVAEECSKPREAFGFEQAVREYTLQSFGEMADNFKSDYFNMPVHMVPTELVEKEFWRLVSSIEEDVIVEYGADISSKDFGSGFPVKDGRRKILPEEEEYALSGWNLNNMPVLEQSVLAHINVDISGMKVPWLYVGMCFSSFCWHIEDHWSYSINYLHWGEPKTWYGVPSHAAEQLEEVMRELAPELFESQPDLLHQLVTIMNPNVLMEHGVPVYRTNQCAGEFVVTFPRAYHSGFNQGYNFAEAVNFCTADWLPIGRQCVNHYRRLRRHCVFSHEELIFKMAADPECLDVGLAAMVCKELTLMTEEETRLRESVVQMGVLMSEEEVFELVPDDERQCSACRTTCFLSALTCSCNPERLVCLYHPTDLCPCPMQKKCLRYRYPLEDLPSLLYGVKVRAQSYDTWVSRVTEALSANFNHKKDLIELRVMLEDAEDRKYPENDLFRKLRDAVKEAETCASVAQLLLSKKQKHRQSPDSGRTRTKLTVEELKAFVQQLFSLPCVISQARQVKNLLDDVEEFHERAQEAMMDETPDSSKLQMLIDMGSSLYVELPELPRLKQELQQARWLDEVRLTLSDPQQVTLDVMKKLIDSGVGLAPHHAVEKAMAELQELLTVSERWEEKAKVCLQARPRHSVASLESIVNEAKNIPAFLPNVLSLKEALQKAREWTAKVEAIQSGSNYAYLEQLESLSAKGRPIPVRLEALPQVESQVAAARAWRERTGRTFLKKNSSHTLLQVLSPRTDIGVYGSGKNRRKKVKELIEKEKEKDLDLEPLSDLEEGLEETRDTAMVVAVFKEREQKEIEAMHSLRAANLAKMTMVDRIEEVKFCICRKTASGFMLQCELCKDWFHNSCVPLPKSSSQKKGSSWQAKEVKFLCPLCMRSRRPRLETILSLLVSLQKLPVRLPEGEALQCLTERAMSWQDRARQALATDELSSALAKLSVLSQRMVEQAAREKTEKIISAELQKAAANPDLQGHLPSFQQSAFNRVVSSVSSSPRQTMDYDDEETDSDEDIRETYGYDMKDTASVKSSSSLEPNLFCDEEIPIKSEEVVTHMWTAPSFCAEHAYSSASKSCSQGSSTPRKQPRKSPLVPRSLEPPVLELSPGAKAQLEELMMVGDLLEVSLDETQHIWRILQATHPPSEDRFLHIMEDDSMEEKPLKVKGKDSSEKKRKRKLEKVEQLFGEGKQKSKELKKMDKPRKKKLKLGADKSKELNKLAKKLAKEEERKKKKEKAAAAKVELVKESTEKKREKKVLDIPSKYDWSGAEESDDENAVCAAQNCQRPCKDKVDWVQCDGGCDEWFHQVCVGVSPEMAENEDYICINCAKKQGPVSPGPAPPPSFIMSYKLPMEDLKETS

| SMILES | MDCK-WT (Papp) [10^−6 cm/s] [1] | IC50 ([2]; * measured at 10 nM enzyme concentration) [µM] | Papp A→B at 60 min, 10 μM [3] [nm/s] | IC50 ([2]; 20 nM enzyme concentration) [µM] |
| --- | --- | --- | --- | --- |
| CC(C)c1cc(C(=O)N2C[C@@H]3[C@H](C2)[C@H]3C(=O)N2CCCC2(C)C)n[nH]1 [EXAMPLE 131, (2,2-Dimethylpyrrolidin-1-yl)((1R,5S,6r)-3-(5-isopropyl-1H-pyrazole-3-carbonyl)-3-azabicyclo[3.1.0]hexan-6-yl)methanone] | 20 10^−6 cm/s | – | – | – |
| Cc1onc([C@H]2[C@@H]3CN(C(=O)c4cc(C(C)C)[nH]n4)C[C@@H]32)c1-c1ccccc1 [EXAMPLE 134, (5-Isopropyl-1H-pyrazol-3-yl)((1R,5S,6r)-6-(5-methyl-4-phenylisoxazol-3-yl)-3-azabicyclo[3.1.0]hexan-3-yl)methanone] | 24 10^−6 cm/s | – | – | – |

Results, then the molecule that gave them:

| MDCK-WT (Papp) [10^−6 cm/s] [1] | IC50 ([2]; * measured at 10 nM enzyme concentration) [µM] | Papp A→B at 60 min, 10 μM [3] [nm/s] | IC50 ([2]; 20 nM enzyme concentration) [µM] | SMILES |
| --- | --- | --- | --- | --- |
| 6 10^−6 cm/s | – | – | – | O=C(NC1CN(C(=O)c2cc(C3CC3)[nH]n2)C1)C1CC12CC2 (single isomer, unassigned) [EXAMPLE 105, N-(1-(5-cyclopropyl-1H-pyrazole-3-carbonyl)azetidin-3-yl)spiro[2.2]pentane-1-carboxamide] |
| – | 1.5 | 680 | – | CC(C)c1cc(C(=O)N2C[C@@H]3[C@H](C2)[C@H]3C(=O)C2CC2)n[nH]1 [EXAMPLE 94, ((1R,5S,6r)-6-(cyclopropanecarbonyl)-3-azabicyclo[3.1.0]hexan-3-yl)(5-isopropyl-1H-pyrazol-3-yl)methanone] |
| – | – | 660 | 0.4 | CC(C)c1c(-c2ccccc2)[nH]n2c(C#N)cnc2c1=O [EXAMPLE 95, 7-Isopropyl-8-oxo-6-phenyl-5,8-dihydroimidazo[1,2-b]pyridazine-3-carbonitrile] |
